Data reported in patent US8993586B2, “N1/N2-lactam acetyl-CoA carboxylase inhibitors” (Pfizer Inc., priority 2010, dated 2015).

Experiments:
[1] = target: recombinant human ACC1 (rhACC1) (Homo sapiens (Human), UniProt Q13085); experiment: recombinant hACC1 Transcreener ADP detection FP assay; type: biochemical; conditions: 50 μM ATP, 120 min at 25° C.
Description: (§1) For example direct inhibition of ACC activity, for the compound of Formula (I) was determined using preparations of recombinant human ACC1 (rhACC1) and recombinant human ACC2 (rhACC2).
[1] Preparation of rhACC1. Two liters of SF9 cells, infected with recombinant baculovirus containing full length human ACC1 cDNA, were suspended in ice-cold lysis buffer (25 mM Tris, pH 7.5; 150 mM NaCl; 10% glycerol; 5 mM imidazole (EMD Bioscience; Gibbstown, N.J.); 2 mM TCEP (BioVectra; Charlottetown, Canada); Benzonase nuclease (10000 U/100 g cell paste; Novagen; Madison, Wis.); EDTA-free protease inhibitor cocktail (1 tab/50 mL; Roche Diagnostics; Mannheim, Germany). Cells were lysed by 3 cycles of freeze-thaw and centrifuged at 40,000×g for 40 minutes (4° C.). Supernatant was directly loaded onto a HisTrap FF crude column (GE Healthcare; Piscataway, N.J.) and eluted with an imidazole gradient up to 0.5 M over 20 column volumes (CV). ACC1-containing fractions were pooled and diluted 1:5 with 25 mM Tris, pH 7.5, 2 mM TCEP, 10% glycerol and direct loaded onto a CaptoQ (GE Healthcare) column and eluted with an NaCl gradient up to 1 M over 20 CV's. Phosphate groups were removed from purified ACC1 by incubation with lambda phosphatase (100 U/10 μM target protein; New England Biolabs; Beverly, Mass.) for 14 hours at 4° C.; okadaic acid was added (1 μM final concentration; Roche Diagnostics) to inhibit the phosphatase. Purified ACC1 was exchanged into 25 mM Tris, pH 7.5, 2 mM TCEP, 10% glycerol, 0.5 M NaCl by 6 hour dialysis at 4° C. Aliquots were prepared and frozen at −80° C.
[2] Measurement of rhACC1 inhibition. hACC1 was assayed in a Costar #3676 (Costar, Cambridge, Mass.) 384-well plate using the Transcreener ADP detection FP assay kit (Bellbrook Labs, Madison, Wis.) using the manufacturer's recommended conditions for a 50 μM ATP reaction. The final conditions for the assay were 50 mM HEPES, pH 7.2, 10 mM MgCl2, 7.5 mM tripotassium citrate, 2 mM DTT, 0.1 mg/mL BSA, 30 μM acetyl-CoA, 50 μM ATP, and 10 mM KHCO3 Typically, a 10 μl reaction was run for 120 min at 25° C., and 10 μl of Transcreener stop and detect buffer was added and the combination incubated at room temp for an additional 1 hour. The data was acquired on a Envision Fluorescence reader (PerkinElmer) using a 620 excitation Cy5 FP general dual mirror, 620 excitation Cy5 FP filter, 688 emission (S) and a 688 (P) emission filter.

[2] = target: recombinant human ACC2 (rhACC2) (Homo sapiens (Human), UniProt O00763); experiment: recombinant hACC2 Transcreener ADP detection FP assay; type: biochemical; conditions: 50 uM ATP, 50 min at 25° C.
Chain of recombinant human ACC2 (rhACC2) (O00763 whole entry V2141I): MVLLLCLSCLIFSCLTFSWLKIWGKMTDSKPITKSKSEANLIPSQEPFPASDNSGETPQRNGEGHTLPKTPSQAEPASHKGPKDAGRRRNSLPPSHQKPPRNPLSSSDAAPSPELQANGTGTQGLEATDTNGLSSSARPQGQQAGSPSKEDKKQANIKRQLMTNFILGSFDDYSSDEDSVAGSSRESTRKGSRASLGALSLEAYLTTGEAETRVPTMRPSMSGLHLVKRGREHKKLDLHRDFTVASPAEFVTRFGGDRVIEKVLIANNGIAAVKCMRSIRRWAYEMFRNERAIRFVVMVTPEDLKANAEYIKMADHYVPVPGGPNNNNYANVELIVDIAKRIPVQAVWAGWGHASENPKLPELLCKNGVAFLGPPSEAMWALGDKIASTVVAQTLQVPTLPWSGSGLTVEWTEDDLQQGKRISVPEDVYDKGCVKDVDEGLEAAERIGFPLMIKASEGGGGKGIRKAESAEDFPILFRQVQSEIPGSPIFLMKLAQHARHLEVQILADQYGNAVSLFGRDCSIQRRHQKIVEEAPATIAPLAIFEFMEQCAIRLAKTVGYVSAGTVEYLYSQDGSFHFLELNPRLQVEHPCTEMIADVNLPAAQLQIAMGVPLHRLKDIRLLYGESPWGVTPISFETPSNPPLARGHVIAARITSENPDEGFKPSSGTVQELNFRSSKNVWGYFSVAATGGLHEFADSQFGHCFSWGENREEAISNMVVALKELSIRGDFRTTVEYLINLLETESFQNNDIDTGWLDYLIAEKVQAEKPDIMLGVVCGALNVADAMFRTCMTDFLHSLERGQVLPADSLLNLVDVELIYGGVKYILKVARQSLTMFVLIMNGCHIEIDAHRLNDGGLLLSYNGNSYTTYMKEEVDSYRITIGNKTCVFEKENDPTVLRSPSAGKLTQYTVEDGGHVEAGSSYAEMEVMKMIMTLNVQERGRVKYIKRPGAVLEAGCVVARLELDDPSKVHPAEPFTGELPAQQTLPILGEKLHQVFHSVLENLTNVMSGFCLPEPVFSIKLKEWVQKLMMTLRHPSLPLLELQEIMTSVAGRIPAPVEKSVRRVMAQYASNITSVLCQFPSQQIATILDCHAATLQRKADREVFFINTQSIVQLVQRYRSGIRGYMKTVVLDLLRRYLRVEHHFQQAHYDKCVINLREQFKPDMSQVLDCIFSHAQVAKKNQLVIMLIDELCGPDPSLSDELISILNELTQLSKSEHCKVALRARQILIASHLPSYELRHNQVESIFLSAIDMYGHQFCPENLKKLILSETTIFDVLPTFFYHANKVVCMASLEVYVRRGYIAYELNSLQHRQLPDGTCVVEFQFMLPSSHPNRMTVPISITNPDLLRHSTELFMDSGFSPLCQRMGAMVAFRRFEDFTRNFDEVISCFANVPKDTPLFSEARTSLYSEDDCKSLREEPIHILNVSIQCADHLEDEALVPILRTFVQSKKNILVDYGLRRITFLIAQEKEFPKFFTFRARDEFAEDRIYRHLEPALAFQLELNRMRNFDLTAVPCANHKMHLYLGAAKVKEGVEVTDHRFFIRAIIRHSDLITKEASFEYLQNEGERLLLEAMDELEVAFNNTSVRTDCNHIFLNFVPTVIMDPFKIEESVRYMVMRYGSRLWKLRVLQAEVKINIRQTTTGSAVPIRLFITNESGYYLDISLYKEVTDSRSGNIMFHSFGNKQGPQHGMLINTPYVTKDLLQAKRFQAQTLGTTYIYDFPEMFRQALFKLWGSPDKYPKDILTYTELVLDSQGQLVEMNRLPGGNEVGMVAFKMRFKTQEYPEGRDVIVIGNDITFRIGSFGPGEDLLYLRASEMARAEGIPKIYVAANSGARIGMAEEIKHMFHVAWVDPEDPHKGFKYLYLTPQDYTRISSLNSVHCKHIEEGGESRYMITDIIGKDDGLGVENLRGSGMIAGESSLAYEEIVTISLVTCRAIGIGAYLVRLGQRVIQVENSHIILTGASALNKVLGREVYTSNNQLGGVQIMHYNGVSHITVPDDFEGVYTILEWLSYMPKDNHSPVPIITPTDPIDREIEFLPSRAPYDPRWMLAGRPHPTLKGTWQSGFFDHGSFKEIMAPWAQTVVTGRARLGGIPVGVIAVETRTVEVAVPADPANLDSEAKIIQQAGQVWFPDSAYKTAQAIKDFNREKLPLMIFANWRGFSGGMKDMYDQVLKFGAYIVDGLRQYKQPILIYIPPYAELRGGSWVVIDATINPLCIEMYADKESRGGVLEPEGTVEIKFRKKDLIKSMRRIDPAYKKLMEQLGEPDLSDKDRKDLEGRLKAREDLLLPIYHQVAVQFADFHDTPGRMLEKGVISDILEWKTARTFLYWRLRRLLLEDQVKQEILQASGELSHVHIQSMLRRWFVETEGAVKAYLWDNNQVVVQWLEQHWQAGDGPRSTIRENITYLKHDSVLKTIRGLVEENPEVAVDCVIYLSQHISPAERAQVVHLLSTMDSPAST
Description: as §1
[3] Preparation of rhACC2. Human ACC2 inhibition was measured using purified recombinant human ACC2 (hrACC2). Briefly, a full length Cytomax clone of ACC2 was purchased from Cambridge Bioscience Limited and was sequenced and subcloned into PCDNA5 FRT TO-TOPO (Invitrogen, Carlsbad, Calif.). The ACC2 was expressed in CHO cells by tetracycline induction and harvested in 5 liters of DMEM/F12 with glutamine, biotin, hygromycin and blasticidin with 1 μg/mL tetracycline (Invitrogen, Carlsbad, Calif.). The conditioned medium containing ACC2 was then applied to a Softlink Soft Release Avidin column (Promega, Madison, Wis.) and eluted with 5 mM biotin. […] The purified ACC2 was dialyzed in 50 mM Tris, 200 mM NaCl, 4 mM DTT, 2 mM EDTA, and 5% glycerol. […] For measurement of ACC2 activity and assessment of ACC2 inhibition, test compounds were dissolved in DMSO and added to the rhACC2 enzyme as a 5× stock with a final DMSO concentration of 1%.
[4] Measurement of human ACC2 inhibition. hACC2 was assayed in a Costar #3676 (Costar, Cambridge, Mass.) 384-well plate using the Transcreener ADP detection FP assay kit (Bellbrook Labs, Madison, Wis.) using the manufacturer's recommended conditions for a 50 uM ATP reaction. The final conditions for the assay were 50 mM HEPES, pH 7.2, 5 mM MgCl2, 5 mM tripotassium citrate, 2 mM DTT, 0.1 mg/mL BSA, 30 μM acetyl-CoA, 50 μM ATP, and 8 mM KHCO3 Typically, a 10 μl reaction was run for 50 min at 25° C., and 10 μl of Transcreener stop and detect buffer was added and the combination incubated at room temp for an additional 1 hour. The data was acquired on an Envision Fluorescence reader (PerkinElmer) using a 620 excitation Cy5 FP general dual mirror, 620 excitation Cy5 FP filter, 688 emission (S) and a 688 (P) emission filter.

Row | Structure (SMILES) | IC50 [1] [nM] | IC50 [2] [nM]
1 | Cc1cc(C(=O)N2CCC3(CC2)Cc2cnn(C(C)C)c2C(=O)N3)cc2c[nH]nc12 [Example 4] | 43 | 38
2 | CC(C)(C)n1ncc2c1C(=O)NC1(CCN(C(=O)c3ccc4n[nH]cc4c3)CC1)C2 [Example 6] | 269 | 305
3 | Cc1cc(C(=O)N2CCC3(CC2)Cc2cnn(C(C)(C)C)c2C(=O)N3)cc2cn[nH]c12 [Example 7] | 62 | 47
4 | CC(C)n1ncc2c1C(=O)NC1(CCN(C(=O)c3cc(Cl)c4[nH]ncc4c3)CC1)C2 [Example 11] | 88 | 72
5 | CCc1cc(C(=O)N2CCC3(CC2)Cc2cnn(C(C)C)c2C(=O)N3)cc2cn[nH]c12 [Example 14] | 131 | 91
6 | CCc1n[nH]c2ccc(C(=O)N3CCC4(CC3)Cc3cnn(C(C)C)c3C(=O)N4)cc12 [Example 15] | 251 | 143
7 | COc1cc(C(=O)N2CCC3(CC2)Cc2cnn(C(C)C)c2C(=O)N3)nc2c(OC)cccc12 [Example 17] | 72 | 31
8 | CC(C)n1ncc2c1C(=O)NC1(CCN(C(=O)c3ccc4cnccc4c3)CC1)C2 [Example 22] | 1250 | 843
9 | CC(C)n1ncc2c1C(=O)NC1(CCN(C(=O)c3ccc4[nH]nc(C#N)c4c3)CC1)C2 [Example 25] | 259 | 137
10 | CC(C)n1ncc2c1C(=O)NC1(CCN(C(=O)c3ccc4[nH]nc(C(N)=O)c4c3)CC1)C2 [Example 27] | 296 | 132
11 | COc1ccc2ccc(C(=O)N3CCC4(CC3)Cc3cnn(C(C)C)c3C(=O)N4)cc2n1 [Example 28] | 158 | 56
12 | CNc1ccc2ccc(C(=O)N3CCC4(CC3)Cc3cnn(C(C)C)c3C(=O)N4)cc2n1 [Example 29] | 33 | 9.2
13 | COc1nccc2ccc(C(=O)N3CCC4(CC3)Cc3cnn(C(C)C)c3C(=O)N4)cc12 [Example 30] | 98 | 30
14 | CNc1nccc2ccc(C(=O)N3CCC4(CC3)Cc3cnn(C(C)C)c3C(=O)N4)cc12 [Example 36] | 67 | 28
15 | CNc1n[nH]c2ccc(C(=O)N3CCC4(CC3)Cc3cnn(C(C)C)c3C(=O)N4)cc12 [Example 37] | 302 | 127
16 | CNc1cc2ccc(C(=O)N3CCC4(CC3)Cc3cnn(C(C)C)c3C(=O)N4)cc2cn1 [Example 38] | 364 | 107
17 | Cc1nc2cc(C(=O)N3CCC4(CC3)Cc3cn(C(C)C)nc3C(=O)N4)ccc2[nH]1 [Example 40] | 656 | 177
18 | Cc1cc(C(=O)N2CCC3(CC2)Cc2cn(C(C)C)nc2C(=O)N3)cc2cn[nH]c12 [Example 42] | 68 | 29
19 | Cc1cc(C(=O)N2CCC3(CC2)Cc2cn(C(C)(C)C)nc2C(=O)N3)cc2cn[nH]c12 [Example 44] | 26 | 10
20 | COc1ccc2cc(C(=O)N3CCC4(CC3)Cc3cn(C(C)(C)C)nc3C(=O)N4)ccc2c1 [Example 46] | 36 | 5.3
21 | COc1ccc2ncc(C(=O)N3CCC4(CC3)Cc3cn(C(C)(C)C)nc3C(=O)N4)cc2c1 [Example 48] | 30 | 9.2
22 | COc1ccc2ccc(C(=O)N3CCC4(CC3)Cc3cn(C(C)(C)C)nc3C(=O)N4)cc2c1 [Example 49] | 8.5 | 3.8

Other lines, results leading:

Row | IC50 [1] [nM] | IC50 [2] [nM] | Structure (SMILES)
23 | 417 | 312 | Cc1nc2cc(C(=O)N3CCC4(CC3)Cc3cnn(C(C)C)c3C(=O)N4)ccc2[nH]1 [Example 1, 1′-isopropyl-1-(2-methyl-1H-benzo[d]imidazole-5-carbonyl)-4′,6′-dihydrospiro[piperidine-4,5′-pyrazolo[3,4-c]pyridin]-7′(1′H)-one]
24 | 3920 | 2280 | CC(C)n1ncc2c1C(=O)NC1(CCN(C(=O)c3ccc4nn(C)cc4c3)CC1)C2 [Example 3, 1′-isopropyl-1-(2-methyl-2H-indazole-5-carbonyl)-4′,6′-dihydrospiro[piperidine-4,5′-pyrazolo[3,4-c]pyridin]-7′(1′H)-one]
25 | 227 | 174 | CC(C)n1ncc2c1C(=O)NC1(CCN(C(=O)c3ccc4[nH]ncc4c3)CC1)C2 [Example 5]
26 | 648 | 560 | CC(C)n1ncc2c1C(=O)NC1(CCN(C(=O)c3cnc4[nH]ccc4c3)CC1)C2 [Example 9]
27 | 403 | 498 | CC(C)n1ncc2c1C(=O)NC1(CCN(C(=O)c3cnc4cc[nH]c4c3)CC1)C2 [Example 10]
28 | 35 | 37 | COc1cc(C(=O)N2CCC3(CC2)Cc2cnn(C(C)C)c2C(=O)N3)cc2[nH]ncc12 [Example 12]
29 | 2040 | 1550 | CC(C)n1ncc2c1C(=O)NC1(CCN(C(=O)c3ccc4c(cnn4C)c3)CC1)C2 [Example 13]
30 | 118 | 90 | Cc1n[nH]c2ccc(C(=O)N3CCC4(CC3)Cc3cnn(C(C)C)c3C(=O)N4)cc12 [Example 16]
31 | 657 | 719 | CC(C)n1ncc2c1C(=O)NC1(CCN(C(=O)c3cc4ncccc4[nH]3)CC1)C2 [Example 18]
32 | 1480 | 2010 | CC(C)n1ncc2c1C(=O)NC1(CCN(C(=O)c3cnc4cn[nH]c4c3)CC1)C2 [Example 19]
33 | 336 | 299 | CC(C)n1ncc2c1C(=O)NC1(CCN(C(=O)c3cnc4ccccc4c3)CC1)C2 [Example 20]
34 | 619 | 341 | CC(C)n1ncc2c1C(=O)NC1(CCN(C(=O)c3ccc4ncccc4c3)CC1)C2 [Example 21]
35 | 621 | 520 | CC(C)n1ncc2c1C(=O)NC1(CCN(C(=O)c3ccc4ccncc4c3)CC1)C2 [Example 23]
36 | 688 | 320 | CC(C)n1ncc2c1C(=O)NC1(CCN(C(=O)c3ccc4cccnc4c3)CC1)C2 [Example 24]
37 | 121 | 60 | COc1ccc2ncc(C(=O)N3CCC4(CC3)Cc3cnn(C(C)C)c3C(=O)N4)cc2c1 [Example 26]
38 | 179 | 96 | CC(C)n1ncc2c1C(=O)NC1(CCN(C(=O)c3cnc4[nH]cc(Cl)c4c3)CC1)C2 [Example 31]
39 | 154 | 56 | CC(C)n1ncc2c1C(=O)NC1(CCN(C(=O)c3cnc4c(Cl)c[nH]c4c3)CC1)C2 [Example 32]
40 | 523 | 108 | CNc1nc2cc(C(=O)N3CCC4(CC3)Cc3cnn(C(C)C)c3C(=O)N4)ccc2[nH]1 [Example 33]
41 | 116 | 50 | CC(C)n1ncc2c1C(=O)NC1(CCN(C(=O)c3ccc4[nH]nc(Cl)c4c3)CC1)C2 [Example 34]
42 | 487 | 91 | CC(C)n1ncc2c1C(=O)NC1(CCN(C(=O)c3ccc4[nH]c(N)nc4c3)CC1)C2 [Example 35]
